Measured values from paper PMC2711511 (Bioorganic & medicinal chemistry letters, 2008).

Legend:
ERα [1] = biological target: T1, ERα (Homo sapiens, UniProt P03372); conditions: cited from earlier work
T1 sequence (P03372 1-595): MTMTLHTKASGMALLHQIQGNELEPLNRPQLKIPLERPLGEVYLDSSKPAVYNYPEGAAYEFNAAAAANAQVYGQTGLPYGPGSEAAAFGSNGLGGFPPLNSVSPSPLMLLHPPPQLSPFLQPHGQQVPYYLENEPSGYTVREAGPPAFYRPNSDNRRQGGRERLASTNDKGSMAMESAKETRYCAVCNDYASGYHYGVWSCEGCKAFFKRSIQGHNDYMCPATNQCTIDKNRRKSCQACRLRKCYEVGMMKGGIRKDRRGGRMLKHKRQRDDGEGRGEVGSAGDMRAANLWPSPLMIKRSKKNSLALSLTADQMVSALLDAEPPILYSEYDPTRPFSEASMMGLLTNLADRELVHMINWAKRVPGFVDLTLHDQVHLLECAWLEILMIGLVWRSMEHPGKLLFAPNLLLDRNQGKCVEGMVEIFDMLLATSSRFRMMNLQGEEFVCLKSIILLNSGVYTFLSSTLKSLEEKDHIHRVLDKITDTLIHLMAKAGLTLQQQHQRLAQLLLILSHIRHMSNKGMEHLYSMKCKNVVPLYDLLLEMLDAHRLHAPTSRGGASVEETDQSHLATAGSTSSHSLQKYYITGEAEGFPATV

ERα [2] = biological target: T1, ERα; conditions: cited from earlier work; remark: listed apart in the source
ERα [3] = biological target: T1, ERα; assay: competitive radiometric binding assay, ERα
ERα [4] = biological target: T1, ERα; assay: estrogen-responsive reporter gene cotransfection assay in HEC-1 cells, ERα

CCCc1c(-c2ccc(O)cc2)nn(-c2ccc(O)cc2)c1-c1ccc(O)cc1 [PPT, propyl-pyrazole-triol]
affinity on ERα versus ERβ (ERα [1]): ca. 1000 fold
agonist potency on ERα versus ERβ (ERα [2]): ca. 1000 fold

Cc1c(-c2ccc(O)cc2)nn(-c2ccc(O)cc2)c1-c1ccc(/C=C/C(=O)N2CCCCC2)cc1 [compound 2]
binding (in words) (ERα [3]; compared with MPP and 1): markedly lower

Cc1c(-c2ccc(O)cc2)nn(-c2ccc(O)cc2)c1-c1ccc(CCCN2CCCCC2)cc1 [compound 1]
ERα partial agonist activity (ERα [4]): lacks
ERα selectivity relative to that of the triol agonist MPT (ERα [3]): about 2.3 fold

Cc1c(-c2ccc(O)cc2)nn(-c2ccc(O)cc2)c1-c1ccc(OCCN2CCCCC2)cc1 [MPP, Methyl-piperidino-pyrazole]
ERα partial agonist activity (ERα [4]): residual, low ERα partial agonist activity
